Each structure is given as a SMILES string.

What all share (format): physicochemical
The nature of data set [1]: Viscosity of the compound itself (Gemini II, Malvern). The note with it: 25° C., at shear velocity of 92 1/s. The method, then:
In addition, the amphipathic compound to be used for the adhesion preventing agent of the present invention has low viscosity in itself. Specifically, the amphipathic compound to be used for the adhesion preventing agent of the present invention has a viscosity of preferably 15.0 Pa·s or less, more preferably 11.0 Pa·s or less, and further preferably 6.0 Pa·s or less as measured at 25° C. in itself. The viscosity can be measured using, for example, a viscosity and viscoelasticity measuring apparatus (Gemini II, Malvern Instruments Ltd.) at 25° C.
The viscosity of each of the compounds described in the Examples 1-7 was measured using a viscosity/viscoelasticity measuring instrument (Gemini II, Malvern) at the temperature of 25° C.

Data set [2] is described as follows: Shear viscosity of liquid crystal gels. Particulars: gel prepared by addition of water, 25° C. The method, then:
The viscosity was measured for the gels prepared by addition of water to the compounds synthesized in Examples 1, 4, and 5. Specifically, for the gel samples obtained by mixing homogeneously according to the same procedure as in Example 9, the shear viscosity was measured at a temperature of 25° C., using a viscosity and viscoelasticity measuring apparatus (Gemini II, Malvern Instruments Ltd.; cone plate φ25, cone angle 1°).
The viscosity was measured for the gels prepared by addition of water to the compounds synthesized in Examples 45 and 50, and C17 glycerin ester synthesized in Example 13. Specifically, for the gel samples obtained by mixing homogeneously according to the same procedure as in Example 9, the shear viscosity was measured at a temperature of 25° C., using a viscosity and viscoelasticity measuring apparatus (Gemini II, Malvern Instruments Ltd.; cone plate φ25, cone angle 1°).

Data set [3] is described as follows: SAXS analysis of compound/water system (liquid crystal formation). The note with it: compound/water system gel, 50% by mass in water-excess condition, room temperature (25° C.). The source says: Whether or not a liquid crystal structure has a cubic lattice may be determined by a small-angle X-ray scattering (SAXS) method, for the purpose of confirming liquid crystal formation. First, an amphipathic compound/water system sample with a predetermined concentration can be filled into an X-ray capillary tube made of quartz, for example, and the capillary tube is sealed with an oxy-fuel burner, and subjected to SAXS assay.
Mono-O-(5,9,13-trimethyltetradeca-4,8,12-trienoyl)glycerol synthesized in Example 1 and pure water were introduced into a mixing device at the concentration of 50% by mass of mono-O-(5,9,13-trimethyltetradeca-4,8,12-trienoyl)glycerol (in water-excess condition), and they were mixed at room temperature (25° C.) and left for 24 hours to obtain a homogeneous mixture. Then the separated water was removed. Thus, a sample of mono-O-(5,9,13-trimethyltetradeca-4,8,12-trienoyl)glycerol/water system was obtained as a white turbid to colorless transparent gel composition in appearance (it was referred to below as the gel sample).
Subsequently, the gel sample was analyzed by small-angle x-ray scattering (SAXS). The NANO-Viewer nano-scale X-ray structure analysis equipment (Rigaku) was used for SAXS analysis, which was performed by X-ray irradiation at room temperature (25° C.), 40 kV, 50 mA, wavelength λ=0.1542 nm (Cu-Kα).
Each of the compounds synthesized in Example 32, 33, 43, 45, 49, and 50 and water were homogeneously mixed in accordance with the same procedure as in Example 9 to obtain a sample of each compound/water system being a gel in appearance. SAXS analysis of these gel samples was performed in the same manner as in Example 9. […]

As to `CC(C)=CCC/C(C)=C/CCC(C)=CCCC(=O)OCC(CO)(CO)CO` (racemic) [Example 3, mono-O-(5,9,13-trimethyltetradeca-4,8,12-trienoyl)pentaerythritol], the Viscosity in data set [1] came to 2.5 Pa·s.

For `CC(C)=CCC/C(C)=C/CC/C(C)=C/CCC(C)=CCCC(=O)OCC(O)CO` (racemic) [Example 4, mono-O-(5,9,13,17-tetramethyloctadeca-4,8,12,16-tetraenoyl)glycerol], the Viscosity in data set [2] (shear velocity 12 1/s) is reported as 39 Pas · sec; in data set [2] (shear velocity 100.8 1/s) it was 1.4 Pas · sec; in data set [1], 0.37 Pa·s. Moreover, the “liquid crystal structure (SAXS peak value ratio)” value in data set [3] is recorded as “reverse hexagonal liquid crystal”.

With `CC(C)=CCC/C(C)=C/CC/C(C)=C/CCC(C)=CCCC(=O)OCC(CO)(CO)CO` (racemic) [Example 6, mono-O-(5,9,13,17-tetramethyloctadeca-4,8,12,16-tetraenoyl)pentaerythritol], the Viscosity in data set [1] is 3.3 Pa·s. Also, the “liquid crystal structure (SAXS peak value ratio)” value in data set [3] is reported as “cubic liquid crystal that belongs to the crystallographic space group Pn3m”.

In data set [1], `CC(C)=CCC/C(C)=C/CCC(C)=CCOCC(O)CO` (racemic) [Example 28, mono-O-(3,7,11-trimethyldodeca-2,6,10-trienyl)glycerol] came in with a Viscosity of 0.20 Pa·s.

In data set [1], `CC(C)=CCC/C(C)=C/CCC(C)=CCOCC(CO)(CO)CO` (racemic) [Example 30, mono-O-(3,7,11-trimethyldodeca-2,6,10-trienyl)pentaerythritol] had a Viscosity of 1.6 Pa·s.

For the compound `CC(C)=CCC/C(C)=C/CCC(C)=CCCCOCC(O)CO` (racemic) [Example 31, mono-O-(5,9,13-trimethyltetradeca-4,8,12-trienyl)glycerol], in data set [1], the Viscosity is recorded as 0.23 Pa·s.

Compound `CC(C)=CCC/C(C)=C/CCC(C)=CCCCOCC(CO)(CO)CO` (racemic) [Example 33, mono-O-(5,9,13-trimethyltetradeca-4,8,12-trienyl)pentaerythritol] came in with a Viscosity in data set [1] of 0.63 Pa·s. Besides, the “liquid crystal structure (SAXS peak value ratio)” value in data set [3] was “cubic liquid crystals that belong to the crystallographic space group Pn3m”.

In turn, `CC(C)=CCC/C(C)=C/CC/C(C)=C/CCC(C)=CC(=O)OCC(O)CO` (racemic) [Example 41, mono-O-(3,7,11,15-tetramethylhexadeca-2,6,10,14-tetraenoyl)glycerol] registered a Viscosity in data set [1] of 3.8 Pa·s.

Consider `CC(C)=CCC/C(C)=C/CC/C(C)=C/CCC(C)=CC(=O)OCC(CO)(CO)CO` (racemic) [Example 43, mono-O-(3,7,11,15-tetramethylhexadeca-2,6,10,14-tetraenoyl)pentaerythritol], for which, in data set [1], the Viscosity is 14 Pa·s. Further, the “liquid crystal structure (SAXS peak value ratio)” value in data set [3] is reported as “reverse hexagonal liquid crystals”.

For `CC(C)=CCC/C(C)=C/CC/C(C)=C/CCC(C)=CCOCC(O)CO` (racemic) [Example 44, mono-O-(3,7,11,15-tetramethylhexadeca-2,6,10,14-tetraenyl)glycerol], the Viscosity in data set [1] is recorded as 0.26 Pa·s.

`CC(C)=CCC/C(C)=C/CC/C(C)=C/CCC(C)=CCOCC(CO)(CO)CO` (racemic) [Example 46, mono-O-(3,7,11,15-tetramethylhexadeca-2,6,10,14-tetraenyl)pentaerythritol]: the Viscosity in data set [1] came to 2.9 Pa·s.

In data set [1], `CC(C)=CCC/C(C)=C/CC/C(C)=C/CCC(C)=CCOC(=O)C(O)CO` (racemic) [Example 52, 3,7,11,15-tetramethylhexadeca-2,6,10,14-tetraenyl glycerate] had a Viscosity of 0.23 Pa·s.

`CC(C)=CCC/C(C)=C/CC/C(C)=C/CCC(C)=CCCCOC(=O)C(O)CO` (racemic) [Example 53, 5,9,13,17-tetramethyloctadeca-4,8,12,16-tetraenyl glycerate] yielded a Viscosity in data set [1] of 0.21 Pa·s.

The compound `CC(C)=CCC/C(C)=C/CCC(C)=CCCC(=O)OCC(O)C(O)CO` (stereo not drawn) [Example 2, mono-O-(5,9,13-trimethyltetradeca-4,8,12-trienoyl)erythritol] came in with a Viscosity in data set [1] of 4.7 Pa·s.

The compound `CC(C)=CCC/C(C)=C/CC/C(C)=C/CCC(C)=CCCC(=O)OCC(O)COCC(O)CO` (stereo not drawn) [Example 7, mono-O-(5,9,13,17-tetramethyloctadeca-4,8,12,16-tetraenoyl)diglycerol] yielded a Viscosity in data set [1] of 2.6 Pa·s.

In the case of `CC(=CCCC(=O)OCC(O)CO)CCCC(C)CCCC(C)C` (stereo not drawn) [Example 13, mono-O-(5,9,13-trimethyltetradec-4-enoyl)glycerol], the figures for the Viscosity in data set [2] (shear velocity 10 1/s), in data set [2] (shear velocity 105 1/s) and in data set [1] were 1878 Pas · sec, 166 Pas · sec and 0.48 Pa·s, respectively.

For the compound `CC(C)=CCC/C(C)=C/CCC(C)=CC(=O)OCC(O)CO` (stereo not drawn) [Example 27, mono-O-(3,7,11-trimethyldodeca-2,6,10-trienoyl)glycerol], in data set [1], the Viscosity was found to be 3.0 Pa·s.

In data set [1], `CC(C)=CCC/C(C)=C/CCC(C)=CCCCOCC(O)C(O)CO` (stereo not drawn) [Example 32, mono-O-(5,9,13-trimethyltetradeca-4,8,12-trienyl)erythritol] registered a Viscosity of 1.2 Pa·s. Moreover, the “liquid crystal structure (SAXS peak value ratio)” value in data set [3] is “cubic liquid crystals that belong to the crystallographic space group Pn3m”.

For the compound `CC(C)=CCC/C(C)=C/CCC(C)=CCCCOCC(O)COCC(O)CO` (stereo not drawn) [Example 34, mono-O-(5,9,13-trimethyltetradeca-4,8,12-trienyl)diglycerol], the Viscosity in data set [1] is 0.37 Pa·s.

`CC(C)=CCC/C(C)=C/CCC(C)=CCCCOC(=O)C(O)CO` (stereo not drawn) [Example 36, 5,9,13-trimethyltetradeca-4,8,12-trienyl glycerate] returned a Viscosity in data set [1] of 0.16 Pa·s.

On to `CC(C)=CCCC(C)=CCCC(C)=CCCC(C)=CCCCOCC(O)CO` (stereo not drawn) [Example 48, mono-O-(5,9,13,17-tetramethyloctadeca-4,8,12,16-tetraenyl)glycerol], for which, in data set [1], the Viscosity was 0.16 Pa·s.

On to `CC(C)=CCC/C(C)=C/CC/C(C)=C/CCC(C)=CCCCOCC(O)C(O)CO` (stereo not drawn) [Example 49, mono-O-(5,9,13,17-tetramethyloctadeca-4,8,12,16-tetraenyl)erythritol], for which the “liquid crystal structure (SAXS peak value ratio)” value in data set [3] is on record as “reverse hexagonal liquid crystals”.

Compound `CC(C)=CCC/C(C)=C/CC/C(C)=C/CCC(C)=CCCCOCC(O)COCC(O)CO` (stereo not drawn) [Example 51, mono-O-(5,9,13,17-tetramethyloctadeca-4,8,12,16-tetraenyl)diglycerol] yielded a Viscosity in data set [1] of 1.4 Pa·s.

On to `CC(=CC(=O)OCC(O)CO)CCCC(C)CCCC(C)C` (stereo not drawn) [Example 54, mono-O-(3,7,11-trimethyldodec-2-enoyl)glycerol], for which the Viscosity in data set [1] stood at 0.45 Pa·s.

In the case of `CC(=CC(=O)OCC(CO)(CO)CO)CCCC(C)CCCC(C)CCCC(C)C` (stereo not drawn) [Example 55, mono-O-(3,7,11,15-tetramethylhexadec-2-enoyl)pentaerythritol], the Viscosity in data set [1] is on record as 10.6 Pa·s.

Compound `CC(=CCCCOCC(CO)(CO)CO)CCCC(C)CCCC(C)C` (stereo not drawn) [Example 56, mono-O-(5,9,13-trimethyltetradec-4-enyl)pentaerythritol] displayed a Viscosity in data set [1] of 0.98 Pa·s.

On to `CC(=CCCCOCC(O)CO)CCCC(C)CCCC(C)CCCC(C)C` (stereo not drawn) [Example 58, mono-O-(5,9,13,17-tetramethyloctadec-4-enyl)glycerol], for which the Viscosity in data set [1] worked out at 0.44 Pa·s.
